Experimental data from paper doi:10.1101/2025.03.03.641193, “Trihydroxybenzaldoximes are redox cycling inhibitors of ThDP-dependent DXP synthase” (bioRxiv, 2025).

Experiments:
[1] = Steady state CV, gold ultramicroelectrode; type: physicochemical; details: Tris pH 8, prepared aerobically then deoxygenated, gold UME
Excerpt: To provide additional evidence for DXPS-dependent reduction of 1, we used electrochemistry to continuously monitor the redox state of 1 during the course of a DXPS reaction. For these experiments, we used a gold ultramicroelectrode, which allowed us to observe the steady-state current corresponding to the reduction of 1, under diffusion control, during the progression of the reaction. […] Using Equation 4 (Electrochemical Measurements, Materials and Methods), it was estimated that the observed pseudo steady state current at −0.50 V corresponded to a one-electron transfer reaction. We used this voltage to interrogate the reduction of 1 during reaction with enzyme and substrates. […] Reactions were initiated in the cell via addition of different combinations of DXPS and substrates which were previously deoxygenated in an anaerobic chamber (Fig 9, S26). […] Returning to the CV, when measured after the chemical reaction transpires, the reduction peak nearly vanished as expected (Fig 9, S28).
Reaction solutions were prepared containing 2 mM MgCl2, 100 mM NaCl, 50 mM Tris pH 8, 1 mM ThDP, and 1 (final 1 mM) under aerobic conditions to allow for oxidation of 1. […] Reactions were initiated and mixed via gas tight Hamilton syringe at ~300 s and measured for at least 200 s. […]

DrDXPS = target: T1, DrDXPS (Deinococcus radiodurans, UniProt Q9RUB5); experiment: DXPS-IspC coupled assay, DrDXPS; type: biochemical, Deinoccocus radiodurans
T1 construct: made in house
T1 sequence (Q9RUB5 whole entry): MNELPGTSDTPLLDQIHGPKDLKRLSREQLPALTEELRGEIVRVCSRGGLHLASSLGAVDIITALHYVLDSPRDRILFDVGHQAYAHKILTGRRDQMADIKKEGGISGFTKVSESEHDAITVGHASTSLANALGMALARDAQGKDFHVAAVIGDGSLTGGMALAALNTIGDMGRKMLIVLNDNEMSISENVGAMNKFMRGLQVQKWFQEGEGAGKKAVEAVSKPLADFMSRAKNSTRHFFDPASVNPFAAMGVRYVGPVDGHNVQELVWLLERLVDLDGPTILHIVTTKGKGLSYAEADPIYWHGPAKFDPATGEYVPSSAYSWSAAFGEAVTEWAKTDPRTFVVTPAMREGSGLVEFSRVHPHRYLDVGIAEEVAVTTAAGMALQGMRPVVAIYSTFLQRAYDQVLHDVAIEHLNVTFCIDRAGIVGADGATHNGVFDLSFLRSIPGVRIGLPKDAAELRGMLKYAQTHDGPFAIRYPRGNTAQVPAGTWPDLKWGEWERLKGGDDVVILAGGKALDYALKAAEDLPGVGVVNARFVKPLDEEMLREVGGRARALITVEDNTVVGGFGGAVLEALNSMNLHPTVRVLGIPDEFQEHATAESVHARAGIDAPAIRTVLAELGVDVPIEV
Protocol: Inhibitory activity of compounds against DXPS were monitored via a continuous spectrophotometric coupled assay with DXPS and IspC as previously described.[41],[42] Briefly, Reaction mixtures containing HEPES (100 mM, pH 8.0), MgCl2 (2 mM), NaCl (5 mM), ThDP (1 mM), BSA (1 mg/mL), DXPS (125–500 nM), IspC (1.7 μM), NADPH (160 μM), DMSO (5%, v/v), and inhibitor (0–200 μM) were preincubated at 25 °C (or chamber temperature 25–30 °C) for 5 min. Enzymatic reactions were initiated via the addition of 20 μL of a 10x substrate mix for a final well volume of 200 μL. Reactions were performed in triplicate unless otherwise noted. See the following sections for details and modifications.
When varying pyruvate (0–500 μM), GAP was maintained at 50 μM (3 mM for R478A). When varying GAP (0–500 μM), pyruvate was maintained at 500 μM. The following [DXPS] were used when varying 1: WT EcDXPS, R478A, H431A, D427A (200 nM), R99A (500 nM), WT DrDXPS, WT PaDXPS (150 nM). Analogs 3 and 4 were tested using WT EcDXPS (150 nM). Reactions were incubated and initiated as described above. Immediately following initiation, NADPH depletion was monitored at 340 nm at 25 °C for 7–10 min with a 14–20 second time interval. Initial velocities of DXP formation were determined from the linear portion of the NADPH decay. Initial velocities were arithmetically corrected for background for compound 4. Initial velocities were plotted vs. substrate concentration, and the data were fit to equation 1 (mixed model), 2 (competitive), or 3 (uncompetitive) based on the calculated α value and goodness of fit in GraphPad Prism. Reported standard errors of the mean for Kis are calculated from three replicates.

ON=Cc1cc(O)c(O)cc1O [compound 1, 2,4,5-trihydroxybenzaldoxime]
reduction half-height potential (steady state CV) [1]: ~ −0.35 V | Ki (DrDXPS): 2800 ± 200 nM | MOI varying D-GAP (DrDXPS; DrDXPS): competitive | MOI varying pyruvate (DrDXPS; DrDXPS): uncompetitive | Ki relative to EcDXPS (DrDXPS; DrDXPS, varying either pyruvate or D-GAP): ≤ 2 fold
